Results from PubChem BioAssay AID2060890 (Molecular Pharmacology Branch, DTP, NCI, 2025).

Tested on: LG0703-F948-PDC complex spheroid viability
Assay: Anticancer human tumor LG0703-F948-PDC patient-derived lung adenocarcinoma cell line growth inhibition [RAS]
Conditions: for IC50: curve of first compound; for viability, T/C: stronger effect = lower value
Outline: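 Multi-cell-type spheroids: tumor cells plus HUVEC endothelial cells and mesenchymal stem cells. RAS-pathway inhibitors were combined with targeted agents, each dosed in half-log steps down from clinical Cmax, or from 10 microM when Cmax was unknown.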

[1] = second compound 0.000949 µM, first compound 0.0316 µM
[2] = second compound 0.000949 µM, first compound 0.1 µM
[3] = second compound 0.000949 µM, first compound 0.316 µM
[4] = second compound 0.000949 µM, first compound 1 µM
[5] = second compound 0.003 µM, first compound 0.0316 µM
[6] = second compound 0.003 µM, first compound 0.1 µM
[7] = second compound 0.003 µM, first compound 0.316 µM
[8] = second compound 0.003 µM, first compound 1 µM
[9] = second compound 0.00949 µM, first compound 0.0316 µM
[10] = second compound 0.00949 µM, first compound 0.1 µM
[11] = second compound 0.00949 µM, first compound 0.316 µM
[12] = second compound 0.00949 µM, first compound 1 µM
[13] = second compound 0.03 µM, first compound 0.0316 µM
[14] = second compound 0.03 µM, first compound 0.1 µM
[15] = second compound 0.03 µM, first compound 0.316 µM
[16] = second compound 0.03 µM, first compound 1 µM
[17] = second compound 0.0949 µM, first compound 0.0316 µM
[18] = second compound 0.0949 µM, first compound 0.1 µM
[19] = second compound 0.0949 µM, first compound 0.316 µM
[20] = second compound 0.0949 µM, first compound 1 µM
[21] = second compound 0.3 µM, first compound 0.0316 µM
[22] = second compound 0.3 µM, first compound 0.1 µM
[23] = second compound 0.3 µM, first compound 0.316 µM
[24] = second compound 0.3 µM, first compound 1 µM
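Note: spheroids exposed to agents for 7 days.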
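Throughout, for viability, T/C: 100% = DMSO vehicle wells.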

SMILES: CCC(CC)c1cc(NC2CCC(N)C2)n2nccc2n1 (centres undefined) + CCn1c(-c2cc(N3CCN(C)CC3)cnc2C(C)OC)c2c3cc(ccc31)-c1csc(n1)CC(NC(=O)C1CC1C)C(=O)N1CCCC(N1)C(=O)OCC(C)(C)C2
- IC50 (second compound 0.000949 µM): 427 nM
- IC50 (second compound 0.003 µM): < 31.6 nM
- IC50 (second compound 0.00949 µM): < 31.6 nM
- IC50 (second compound 0.03 µM): < 31.6 nM
- IC50 (second compound 0.0949 µM): < 31.6 nM
- IC50 (second compound 0.3 µM): < 31.6 nM
- viability, T/C [1]: 72.3%
- viability, T/C [2]: 59.8%
- viability, T/C [3]: 55.2%
- viability, T/C [4]: 33.9%
- viability, T/C (second compound 0.000949 µM, first compound 3.16 µM): 0.67%
- viability, T/C (second compound 0.000949 µM, first compound 10 µM): 0.23%
- viability, T/C [5]: 44.1%
- viability, T/C [6]: 40.2%
- viability, T/C [7]: 36.8%
- viability, T/C [8]: 25.3%
- viability, T/C (second compound 0.003 µM, first compound 3.16 µM): 0.46%
- viability, T/C (second compound 0.003 µM, first compound 10 µM): 0.16%
- viability, T/C [9]: 24.1%
- viability, T/C [10]: 20.3%
- viability, T/C [11]: 17.9%
- viability, T/C [12]: 9.58%
- viability, T/C (second compound 0.00949 µM, first compound 3.16 µM): 0.42%
- viability, T/C (second compound 0.00949 µM, first compound 10 µM): 0.27%
- viability, T/C [13]: 13%
- viability, T/C [14]: 13.9%
- viability, T/C [15]: 13.1%
- viability, T/C [16]: 6.07%
- viability, T/C (second compound 0.03 µM, first compound 3.16 µM): 0.25%
- viability, T/C (second compound 0.03 µM, first compound 10 µM): 0.24%
- viability, T/C [17]: 9.5%
- viability, T/C [18]: 10.2%
- viability, T/C [19]: 9.16%
- viability, T/C [20]: 5.84%
- viability, T/C (second compound 0.0949 µM, first compound 3.16 µM): 0.57%
- viability, T/C (second compound 0.0949 µM, first compound 10 µM): 0.11%
- viability, T/C [21]: 8.46%
- viability, T/C [22]: 9.75%
- viability, T/C [23]: 8.9%
- viability, T/C [24]: 4.9%
- viability, T/C (second compound 0.3 µM, first compound 3.16 µM): 0.23%
- viability, T/C (second compound 0.3 µM, first compound 10 µM): 0.41%

SMILES: C=CC(=O)Nc1cc(Nc2nccc(-c3cn(C)c4ccccc34)n2)c(OC)cc1N(C)CCN(C)C + CCn1c(-c2cccnc2C(C)OC)c2c3cc(ccc31)N1CCOC(CC(NC(=O)C(C(C)C)N(C)C(=O)C3(F)CCN(C(=O)C#CC(C)(C)N(C)C)CC3)C(=O)N3CCCC(N3)C(=O)OCC(C)(C)C2)C1
- IC50 (second compound 0.000949 µM): 13.1 nM
- IC50 (second compound 0.003 µM): 13.9 nM
- IC50 (second compound 0.00949 µM): 12.1 nM
- IC50 (second compound 0.03 µM): 9.92 nM
- IC50 (second compound 0.0949 µM): 4.89 nM
- IC50 (second compound 0.3 µM): < 3.16 nM
- viability, T/C (second compound 0.000949 µM, first compound 0.00316 µM): 78.5%
- viability, T/C (second compound 0.000949 µM, first compound 0.01 µM): 56.9%
- viability, T/C [1]: 27.3%
- viability, T/C [2]: 20.5%
- viability, T/C [3]: 19.1%
- viability, T/C [4]: 13.9%
- viability, T/C (second compound 0.003 µM, first compound 0.00316 µM): 88.6%
- viability, T/C (second compound 0.003 µM, first compound 0.01 µM): 57.5%
- viability, T/C [5]: 31.1%
- viability, T/C [6]: 21.5%
- viability, T/C [7]: 16.2%
- viability, T/C [8]: 15.6%
- viability, T/C (second compound 0.00949 µM, first compound 0.00316 µM): 83.4%
- viability, T/C (second compound 0.00949 µM, first compound 0.01 µM): 55.6%
- viability, T/C [9]: 22.3%
- viability, T/C [10]: 18.5%
- viability, T/C [11]: 19.7%
- viability, T/C [12]: 15.2%
- viability, T/C (second compound 0.03 µM, first compound 0.00316 µM): 82.6%
- viability, T/C (second compound 0.03 µM, first compound 0.01 µM): 49.6%
- viability, T/C [13]: 26.6%
- viability, T/C [14]: 15.5%
- viability, T/C [15]: 17.4%
- viability, T/C [16]: 14.4%
- viability, T/C (second compound 0.0949 µM, first compound 0.00316 µM): 60.2%
- viability, T/C (second compound 0.0949 µM, first compound 0.01 µM): 33.1%
- viability, T/C [17]: 21.2%
- viability, T/C [18]: 14.9%
- viability, T/C [19]: 13.9%
- viability, T/C [20]: 12.1%
- viability, T/C (second compound 0.3 µM, first compound 0.00316 µM): 29.1%
- viability, T/C (second compound 0.3 µM, first compound 0.01 µM): 17.5%
- viability, T/C [21]: 9.89%
- viability, T/C [22]: 9.16%
- viability, T/C [23]: 9.3%
- viability, T/C [24]: 13.5%
